From patent US20260262643A1, “HERBICIDAL BENZOXAZINES” (FMC CORPORATION, priority 2022, published 2026)

What was measured:
ragweed [1] = assay: Test A preemergence; type: in vivo, Ambrosia artemisiifolia
Method in brief: (§1)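 Seeds in loam–sand blend received a directed preemergence soil spray of compound in non-phytotoxic solvent with surfactant; postemergence plants (2–10 cm, one- to two-leaf stage) were sprayed with the same formulation. After 10 days in greenhouse, injury was rated visually versus untreated controls, 0 (no effect) to 100 (complete control).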

barnyardgrass = assay: Test B flooded paddy test; type: in vivo, Echinochloa crus-galli; conditions: 250 g ai/ha, Flood, 13 days, 0 to 100 scale (0 no effect, 100 complete control)
Method in brief: (§2)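 Visual scores from 0 (no effect) to 100 (complete kill) were assigned 13 days after treatment by comparison with controls. Seedlings had been treated at two leaves by adding compound to floodwater standing 3 cm deep, kept at that level in the greenhouse.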

blackgrass [2] = assay: Test A postemergence; type: in vivo, Alopecurus myosuroides
Method in brief: as §1

galium = assay: Test A postemergence; type: in vivo, Galium aparine
Method in brief: as §1

oat, wild [3] = assay: Test A preemergence; type: in vivo, Avena fatua
Method in brief: as §1

goosegrass [4] = assay: Test A preemergence; type: in vivo, Eleusine indica
Method in brief: as §1

ragweed [5] = assay: Test A postemergence; type: in vivo, Ambrosia artemisiifolia
Method in brief: as §1

soybean [6] = assay: Test A preemergence; type: in vivo, Glycine max
Method in brief: as §1

corn [7] = assay: Test A preemergence; type: in vivo, Zea mays
Method in brief: as §1

wheat [8] = assay: Test A postemergence; type: in vivo, Triticum aestivum
Method in brief: as §1

pigweed, palmer [9] = assay: Test A preemergence; type: in vivo, Amaranthus palmeri
Method in brief: as §1

foxtail, giant [10] = assay: Test A postemergence; type: in vivo, Setaria faberi
Method in brief: as §1

wheat [11] = assay: Test A preemergence; type: in vivo, Triticum aestivum
Method in brief: as §1

rice = assay: Test B flooded paddy test; type: in vivo, Oryza sativa; conditions: 250 g ai/ha, Flood, 13 days, 0 to 100 scale (0 no effect, 100 complete control)
Method in brief: as §2

goosegrass [12] = assay: Test A postemergence; type: in vivo, Eleusine indica
Method in brief: as §1

sedge, umbrella = assay: Test B flooded paddy test; type: in vivo, Cyperus difformis; conditions: 250 g ai/ha, Flood, 13 days, 0 to 100 scale (0 no effect, 100 complete control)
Method in brief: as §2

blackgrass [13] = assay: Test A preemergence; type: in vivo, Alopecurus myosuroides
Method in brief: as §1

kochia [14] = assay: Test A postemergence; type: in vivo, Bassia scoparia
Method in brief: as §1

ryegrass, Italian [15] = assay: Test A postemergence; type: in vivo, Lolium multiflorum
Method in brief: as §1

ducksalad = assay: Test B flooded paddy test; type: in vivo, Heteranthera limosa; conditions: 250 g ai/ha, Flood, 13 days, 0 to 100 scale (0 no effect, 100 complete control)
Method in brief: as §2

kochia [16] = assay: Test A preemergence; type: in vivo, Bassia scoparia
Method in brief: as §1

pigweed, palmer [17] = assay: Test A postemergence; type: in vivo, Amaranthus palmeri
Method in brief: as §1

oat, wild [18] = assay: Test A postemergence; type: in vivo, Avena fatua
Method in brief: as §1

corn [19] = assay: Test A postemergence; type: in vivo, Zea mays
Method in brief: as §1

soybean [20] = assay: Test A postemergence; type: in vivo, Glycine max
Method in brief: as §1

ryegrass, Italian [21] = assay: Test A preemergence; type: in vivo, Lolium multiflorum
Method in brief: as §1

horseweed = assay: Test A postemergence; type: in vivo, Erigeron canadensis
Method in brief: as §1

foxtail, giant [22] = assay: Test A preemergence; type: in vivo, Setaria faberi
Method in brief: as §1

[23] = 125 g ai/ha, visual injury after 10 days, 0 to 100 scale, 0 is no effect, 100 is complete control
[24] = 500 g ai/ha, 0 to 100 scale (0 no effect, 100 complete control), 10 days
[25] = 125 g ai/ha, postemergence, 10 days, visual injury, 0 to 100 scale (0 no effect, 100 complete control)
[26] = 500 g ai/ha, Postemergence, 0 to 100 scale
[27] = 125 g ai/ha, postemergence, 10 days, 0 to 100 scale, 0 no effect, 100 complete control
[28] = 500 g ai/ha, postemergence, 10 days, visual injury, 0 to 100 scale (0 no effect, 100 complete control)

Cc1cccc2c1O[C@@H](C)CN2C(=O)c1cc(-n2cncn2)ccc1Cl [Compound 60]
45: Plant response rating, Ducksalad (ducksalad)
20: Plant response rating, Ragweed (ragweed [1]; [24]) | Plant response rating, Ragweed (ragweed [5]; [25]) | Plant response rating, Corn (corn [7]; [23]) | Plant response rating, Blackgrass (blackgrass [13]; [23]) | Plant response rating, Kochia (kochia [14]; [25]) | Plant response rating, Pigweed, Palmer (pigweed, palmer [17]; [25])
40: Plant response rating, Soybean (soybean [6]; [23])
100: Plant response rating, Galium (galium; [26]) | Plant response rating, Goosegrass (goosegrass [4]; [23]) | Plant response rating, Goosegrass (goosegrass [4]; [24]) | Plant response rating, Soybean (soybean [6]; [24]) | Plant response rating, Soybean (soybean [20]; [25]) | Plant response rating, Soybean (soybean [20]; [26]) | Plant response rating, Ryegrass, Italian (ryegrass, Italian [21]; [23]) | Plant response rating, Ryegrass, Italian (ryegrass, Italian [21]; [24]) | Plant response rating, Foxtail, Giant (foxtail, giant [22]; [23]) | Plant response rating, Foxtail, Giant (foxtail, giant [22]; [24])
80: Plant response rating, Goosegrass (goosegrass [12]; [26]) | Plant response rating, Corn (corn [19]; [26])
50: Plant response rating, Ragweed (ragweed [5]; [26]) | Plant response rating, Pigweed, Palmer (pigweed, palmer [17]; [26]) | Plant response rating, Oat, Wild (oat, wild [18]; [25])
30: Plant response rating, Corn (corn [7]; [24]) | Plant response rating, Wheat (wheat [8]; [25]) | Plant response rating, Pigweed, Palmer (pigweed, palmer [9]; [23]) | Plant response rating, Wheat (wheat [11]; [24]) | Plant response rating, Kochia (kochia [16]; [24]) | Plant response rating, Corn (corn [19]; [25])
70: Plant response rating, Blackgrass (blackgrass [13]; [24]) | Plant response rating, Kochia (kochia [14]; [26])
60: Plant response rating, Blackgrass (blackgrass [2]; [26]) | Plant response rating, Wheat (wheat [8]; [26]) | Plant response rating, Ryegrass, Italian (ryegrass, Italian [15]; [26])
10: Plant response rating, Blackgrass (blackgrass [2]; [25]) | Plant response rating, Goosegrass (goosegrass [12]; [25])
35: Plant response rating, Sedge, Umbrella (sedge, umbrella)
0: Plant response rating, Ragweed (ragweed [1]; [23]) | Plant response rating, Oat, Wild (oat, wild [3]; [23]) | Plant response rating, Oat, Wild (oat, wild [3]; [24]) | Plant response rating, Wheat (wheat [11]; [23]) | Plant response rating, Rice (rice) | Plant response rating, Ryegrass, Italian (ryegrass, Italian [15]; [25]) | Plant response rating, Kochia (kochia [16]; [23]) | Plant response rating, Horseweed (horseweed; [25]) | Plant response rating, Horseweed (horseweed; [26])
15: Plant response rating, Barnyardgrass (barnyardgrass)
90: Plant response rating, Galium (galium; [25]) | Plant response rating, Pigweed, Palmer (pigweed, palmer [9]; [24]) | Plant response rating, Foxtail, Giant (foxtail, giant [10]; [25]) | Plant response rating, Foxtail, Giant (foxtail, giant [10]; [26]) | Plant response rating, Oat, Wild (oat, wild [18]; [26])

CCc1ncn(-c2ccc(CC)c(C(=O)N3C[C@H](C)Oc4c(Cl)cccc43)c2)n1 [Compound 95]
98: Plant response rating, Sedge, Umbrella (sedge, umbrella)
60: Plant response rating, Corn (corn [7]; [23]) | Ryegrass, Italian plant response rating (ryegrass, Italian [15]; [27]) | Plant response rating, Kochia (kochia [16]; [23]) | Corn plant response rating (corn [19]; [27])
100: Galium plant response rating (galium; [27]) | Plant response rating, Galium (galium; [28]) | Plant response rating, Goosegrass (goosegrass [4]; [23]) | Plant response rating, Goosegrass (goosegrass [4]; [24]) | Plant response rating, Soybean (soybean [6]; [24]) | Plant response rating, Corn (corn [7]; [24]) | Plant response rating, Pigweed, Palmer (pigweed, palmer [9]; [24]) | Plant response rating, Ryegrass, Italian (ryegrass, Italian [15]; [28]) | Plant response rating, Kochia (kochia [16]; [24]) | Soybean plant response rating (soybean [20]; [27]) | Plant response rating, Soybean (soybean [20]; [28]) | Plant response rating, Ryegrass, Italian (ryegrass, Italian [21]; [23]) | Plant response rating, Ryegrass, Italian (ryegrass, Italian [21]; [24]) | Plant response rating, Foxtail, Giant (foxtail, giant [22]; [23]) | Plant response rating, Foxtail, Giant (foxtail, giant [22]; [24])
70: Plant response rating, Ragweed (ragweed [1]; [24]) | Plant response rating, Blackgrass (blackgrass [13]; [23]) | Oat, Wild plant response rating (oat, wild [18]; [27])
50: Plant response rating, Ragweed (ragweed [5]; [28]) | Plant response rating, Soybean (soybean [6]; [23]) | Pigweed, Palmer plant response rating (pigweed, palmer [17]; [27])
80: Blackgrass plant response rating (blackgrass [2]; [27]) | Plant response rating, Oat, Wild (oat, wild [3]; [23]) | Plant response rating, Wheat (wheat [8]; [28]) | Goosegrass plant response rating (goosegrass [12]; [27]) | Plant response rating, Blackgrass (blackgrass [13]; [24]) | Kochia plant response rating (kochia [14]; [27]) | Plant response rating, Oat, Wild (oat, wild [18]; [28])
95: Plant response rating, Ducksalad (ducksalad)
30: Plant response rating, Horseweed (horseweed; [28])
65: Plant response rating, Barnyardgrass (barnyardgrass)
0: Plant response rating, Ragweed (ragweed [1]; [23]) | Ragweed plant response rating (ragweed [5]; [27]) | Plant response rating, Rice (rice) | Horseweed plant response rating (horseweed; [27])
40: Wheat plant response rating (wheat [8]; [27])
90: Plant response rating, Blackgrass (blackgrass [2]; [28]) | Plant response rating, Oat, Wild (oat, wild [3]; [24]) | Plant response rating, Pigweed, Palmer (pigweed, palmer [9]; [23]) | Foxtail, Giant plant response rating (foxtail, giant [10]; [27]) | Plant response rating, Foxtail, Giant (foxtail, giant [10]; [28]) | Plant response rating, Wheat (wheat [11]; [23]) | Plant response rating, Wheat (wheat [11]; [24]) | Plant response rating, Goosegrass (goosegrass [12]; [28]) | Plant response rating, Kochia (kochia [14]; [28]) | Plant response rating, Pigweed, Palmer (pigweed, palmer [17]; [28]) | Plant response rating, Corn (corn [19]; [28])

Cc1cccc2c1O[C@@H](C)CN2C(=O)c1cccc(-n2cnc(C(F)(F)F)n2)c1 [Compound 66]
20: Plant response rating, Wheat (wheat [8]; [28]) | Plant response rating, Foxtail, Giant (foxtail, giant [10]; [25]) | Plant response rating, Wheat (wheat [11]; [23])
80: Plant response rating, Galium (galium; [25]) | Plant response rating, Wheat (wheat [11]; [24]) | Plant response rating, Kochia (kochia [14]; [28])
40: Plant response rating, Ragweed (ragweed [5]; [28]) | Plant response rating, Soybean (soybean [6]; [24])
30: Plant response rating, Oat, Wild (oat, wild [3]; [23]) | Plant response rating, Soybean (soybean [6]; [23]) | Plant response rating, Corn (corn [7]; [23]) | Plant response rating, Kochia (kochia [14]; [25]) | Plant response rating, Pigweed, Palmer (pigweed, palmer [17]; [28])
70: Plant response rating, Blackgrass (blackgrass [13]; [23]) | Plant response rating, Ryegrass, Italian (ryegrass, Italian [15]; [28]) | Plant response rating, Oat, Wild (oat, wild [18]; [28]) | Plant response rating, Corn (corn [19]; [28])
10: Plant response rating, Goosegrass (goosegrass [12]; [25]) | Plant response rating, Kochia (kochia [16]; [23])
50: Plant response rating, Corn (corn [7]; [24]) | Plant response rating, Pigweed, Palmer (pigweed, palmer [9]; [23]) | Plant response rating, Goosegrass (goosegrass [12]; [28])
100: Plant response rating, Galium (galium; [28]) | Plant response rating, Goosegrass (goosegrass [4]; [23]) | Plant response rating, Goosegrass (goosegrass [4]; [24]) | Plant response rating, Pigweed, Palmer (pigweed, palmer [9]; [24]) | Plant response rating, Soybean (soybean [20]; [28]) | Plant response rating, Ryegrass, Italian (ryegrass, Italian [21]; [23]) | Plant response rating, Ryegrass, Italian (ryegrass, Italian [21]; [24]) | Plant response rating, Foxtail, Giant (foxtail, giant [22]; [24])
60: Plant response rating, Blackgrass (blackgrass [2]; [25])
90: Plant response rating, Blackgrass (blackgrass [2]; [26]) | Plant response rating, Oat, Wild (oat, wild [3]; [24]) | Plant response rating, Foxtail, Giant (foxtail, giant [10]; [28]) | Plant response rating, Blackgrass (blackgrass [13]; [24]) | Plant response rating, Kochia (kochia [16]; [24]) | Plant response rating, Foxtail, Giant (foxtail, giant [22]; [23])
0: Plant response rating, Ragweed (ragweed [1]; [23]) | Plant response rating, Ragweed (ragweed [1]; [24]) | Plant response rating, Barnyardgrass (barnyardgrass) | Plant response rating, Rice (rice) | Plant response rating, Sedge, Umbrella (sedge, umbrella) | Plant response rating, Ducksalad (ducksalad) | Plant response rating, Corn (corn [19]; [25]) | Plant response rating, Horseweed (horseweed; [25]) | Plant response rating, Horseweed (horseweed; [28])
